Patent publication US10227344B2, “CK2 inhibitors, compositions and methods thereof” (Polaris Pharmaceuticals, Inc., priority 2016, dated 2019)

Tests used:
Format in all cases: cell-based
[1] = test system: HL60; assay: Cancer cell panel, cell viability (resazurin): Leukemia, HL60; conditions: 72 hours, labelled drug combined with Example 3
[2] = test system: H1299; assay: Cancer cell panel, cell viability (resazurin): NSCLC, H1299; conditions: 72 hours, labelled drug combined with Example 3
[3] = test system: H1975; assay: Cancer cell panel, cell viability (resazurin): NSCLC, H1975; conditions: 72 hours, labelled drug combined with Example 3
[4] = test system: BT-20; assay: Cancer cell panel, cell viability (resazurin): Breast, BT-20; conditions: BT-20 (Breast), 72 hours; labelled drug combined with Example 3
[5] = test system: A375; assay: Cancer cell panel, cell viability (resazurin): Melanoma, A375; conditions: 72 hours, labelled drug combined with Example 3
[6] = test system: 786-O; assay: Cancer cell panel, cell viability (resazurin): Renal, 786-O; conditions: 786-O (Renal), 72 hours; labelled drug combined with Example 3
Protocol: (§1) Cells were plated in 96-well plates and treated for 72 hours with a serially diluted CK2 inhibitor or anti-cancer drug or their combination. The suspension cell lines were treated right after plating, while the adherent cells were allowed to attach overnight prior to the start of the treatment.
(§2) Cell viability was determined by adding resazurin to cell cultures and measuring fluorescence with a plate reader. Relative cell viability was calculated by dividing the cell viability signal from a test sample by that of a non-treated control. […] Bliss Independence and Highest Single Agent models were used to determine if there is synergy, additivity or antagonism between the CK2 inhibitor and an anti-cancer drug.

[7] = test system: H2122; assay: Cancer cell panel, cell viability (resazurin): NSCLC, H2122; conditions: 72 hours, labelled drug combined with Example 3
[8] = test system: H460; assay: Cancer cell panel, cell viability (resazurin): NSCLC, H460; conditions: 72 hours, labelled drug combined with Example 3
Protocol: as §1, §2

[9] = test system: Caov-3; assay: Cancer cell panel, cell viability (resazurin): Ovarian, Caov-3; conditions: Caov-3 (Ovarian), 72 hours; labelled drug combined with Example 3
Protocol: as §1, §2

[10] = test system: DLD-1; assay: Cancer cell panel, cell viability (resazurin): Colon, DLD-1; conditions: DLD-1 (Colon), 72 hours; labelled drug combined with Example 3
[11] = test system: NAMALWA; assay: Cancer cell panel, cell viability (resazurin): Burkitt's Lymphoma, NAMALWA; conditions: 72 hours, labelled drug combined with Example 3
Protocol: as §1, §2

[12] = test system: ACHN; assay: Cancer cell panel, cell viability (resazurin): Renal, ACHN; conditions: 72 hours, labelled drug combined with Example 3
[13] = test system: BxPC3; assay: Cancer cell panel, cell viability (resazurin): Pancreatic, BxPC3; conditions: 72 hours, labelled drug combined with Example 3
[14] = test system: SKOV-3; assay: Cancer cell panel, cell viability (resazurin): Ovarian, SKOV-3; conditions: SKOV-3 (Ovarian), 72 hours; labelled drug combined with Example 3
[15] = test system: MOLT4; assay: Cancer cell panel, cell viability (resazurin): Leukemia, MOLT4; conditions: 72 hours, labelled drug combined with Example 3
Protocol: as §1, §2

[16] = test system: EOL-1; assay: Cancer cell panel, cell viability (resazurin): Leukemia, EOL-1; conditions: EOL-1 (Leukemia), 72 hours; labelled drug combined with Example 3
[17] = test system: Panc-1; assay: Cancer cell panel, cell viability (resazurin): Pancreatic, Panc-1; conditions: Panc-1 (Pancreatic), 72 hours; labelled drug combined with Example 3
[18] = test system: PC3; assay: Cancer cell panel, cell viability (resazurin): Prostate, PC3; conditions: 72 hours, labelled drug combined with Example 3
Protocol: as §1, §2

[19] = test system: H23; assay: Cancer cell panel, cell viability (resazurin): NSCLC, H23; conditions: 72 hours, labelled drug combined with Example 3
[20] = test system: OVCAR-3; assay: Cancer cell panel, cell viability (resazurin): Ovarian, OVCAR-3; conditions: OVCAR-3 (Ovarian), 72 hours; labelled drug combined with Example 3
Protocol: as §1, §2

[21] = test system: K562; assay: Cancer cell panel, cell viability (resazurin): Leukemia, K562; conditions: 72 hours, labelled drug combined with Example 3
[22] = test system: LoVo; assay: Cancer cell panel, cell viability (resazurin): Colon, LoVo; conditions: 72 hours, labelled drug combined with Example 3
[23] = test system: Caki-1; assay: Cancer cell panel, cell viability (resazurin): Renal, Caki-1; conditions: Caki-1 (Renal), 72 hours; labelled drug combined with Example 3
[24] = test system: HT29; assay: Cancer cell panel, cell viability (resazurin): Colon, HT29; conditions: 72 hours, labelled drug combined with Example 3
[25] = test system: WM-115; assay: Cancer cell panel, cell viability (resazurin): Melanoma, WM-115; conditions: WM-115 (Melanoma), 72 hours; labelled drug combined with Example 3
[26] = test system: MDA-MB-453; assay: Cancer cell panel, cell viability (resazurin): Breast, MDA-MB-453; conditions: MDA-MB-453 (Breast), 72 hours; labelled drug combined with Example 3
[27] = test system: A2780; assay: Cancer cell panel, cell viability (resazurin): Ovarian, A2780; conditions: 72 hours, labelled drug combined with Example 3
Protocol: as §1, §2

[28] = test system: BT-474; assay: Cancer cell panel, cell viability (resazurin): Breast, BT-474; conditions: BT-474 (Breast), 72 hours; labelled drug combined with Example 3
[29] = test system: SK-MEL-3; assay: Cancer cell panel, cell viability (resazurin): Melanoma, SK-MEL-3; conditions: SK-MEL-3 (Melanoma), 72 hours; labelled drug combined with Example 3
[30] = test system: MDA-MB-231; assay: Cancer cell panel, cell viability (resazurin): Breast, MDA-MB-231; conditions: MDA-MB-231 (Breast), 72 hours; labelled drug combined with Example 3
Protocol: as §1, §2

[31] = test system: U266; assay: Cancer cell panel, cell viability (resazurin): multiple myeloma, U266; conditions: 72 hours, labelled drug combined with Example 3
[32] = test system: Colo205; assay: Cancer cell panel, cell viability (resazurin): Colon, Colo205; conditions: 72 hours, labelled drug combined with Example 3
Protocol: as §1, §2

[33] = test system: Daudi; assay: Cancer cell panel, cell viability (resazurin): Burkitt's Lymphoma, Daudi; conditions: 72 hours, labelled drug combined with Example 3
[34] = test system: RPMI8226; assay: Cancer cell panel, cell viability (resazurin): multiple myeloma, RPMI8226; conditions: 72 hours, labelled drug combined with Example 3
[35] = test system: SkBr-3; assay: Cancer cell panel, cell viability (resazurin): Breast, SkBr-3; conditions: SkBr-3 (Breast), 72 hours; labelled drug combined with Example 3
Protocol: as §1, §2

[36] = test system: U87MG; assay: Cancer cell panel, cell viability (resazurin): Glioblastoma, U87MG; conditions: 72 hours, labelled drug combined with Example 3
[37] = test system: T47D; assay: Cancer cell panel, cell viability (resazurin): Breast, T47D; conditions: 72 hours, labelled drug combined with Example 3
[38] = test system: SK-MEL-24; assay: Cancer cell panel, cell viability (resazurin): Melanoma, SK-MEL-24; conditions: SK-MEL-24 (Melanoma), 72 hours; labelled drug combined with Example 3
[39] = test system: ZR-75-1; assay: Cancer cell panel, cell viability (resazurin): Breast, ZR-75-1; conditions: ZR-75-1 (Breast), 72 hours; labelled drug combined with Example 3
Protocol: as §1, §2

SMILES: C#Cc1cccc(Nc2ncnc3cc(OCCOC)c(OCCOC)cc23)c1 [Erlotinib, erlotinib]
- synergy, additivity or antagonism of the combination of Example 3 with the anti-cancer drug [1]: + + (Slight synergy relative to each agent alone (CI = 0.75-0.9 by Bliss Independence Model))
- synergy, additivity or antagonism of the combination of Example 3 with the anti-cancer drug [2]: + (Additive relative to each agent alone (CI = 0.9-1 by Bliss Independence Model and <0.9 by Highest Single Agent Model))
- synergy, additivity or antagonism of the combination of Example 3 with the anti-cancer drug [3]: + + (Slight synergy relative to each agent alone (CI = 0.75-0.9 by Bliss Independence Model))
- synergy, additivity or antagonism of the combination of Example 3 with the anti-cancer drug [4]: + + + (Synergy relative to each agent alone (CI = 0.4-0.74 by Bliss Independence Model))
- synergy, additivity or antagonism of the combination of Example 3 with the anti-cancer drug [5]: + + (Slight synergy relative to each agent alone (CI = 0.75-0.9 by Bliss Independence Model))
- synergy, additivity or antagonism of the combination of Example 3 with the anti-cancer drug [6]: + + (Slight synergy relative to each agent alone (CI = 0.75-0.9 by Bliss Independence Model))
- synergy, additivity or antagonism of the combination of Example 3 with the anti-cancer drug [7]: + + + + (Strong synergy relative to each agent alone (CI < 0.4 by Bliss Independence Model))
- synergy, additivity or antagonism of the combination of Example 3 with the anti-cancer drug [8]: + + + + (Strong synergy relative to each agent alone (CI < 0.4 by Bliss Independence Model))
- synergy, additivity or antagonism of the combination of Example 3 with the anti-cancer drug [9]: + + (Slight synergy relative to each agent alone (CI = 0.75-0.9 by Bliss Independence Model))
- synergy, additivity or antagonism of the combination of Example 3 with the anti-cancer drug [10]: + + + (Synergy relative to each agent alone (CI = 0.4-0.74 by Bliss Independence Model))
- synergy, additivity or antagonism of the combination of Example 3 with the anti-cancer drug [11]: + (Additive relative to each agent alone (CI = 0.9-1 by Bliss Independence Model and <0.9 by Highest Single Agent Model))
- synergy, additivity or antagonism of the combination of Example 3 with the anti-cancer drug [12]: + (Additive relative to each agent alone (CI = 0.9-1 by Bliss Independence Model and <0.9 by Highest Single Agent Model))
- synergy, additivity or antagonism of the combination of Example 3 with the anti-cancer drug [13]: + + + + (Strong synergy relative to each agent alone (CI < 0.4 by Bliss Independence Model))
- synergy, additivity or antagonism of the combination of Example 3 with the anti-cancer drug [14]: + + + (Synergy relative to each agent alone (CI = 0.4-0.74 by Bliss Independence Model))
- synergy, additivity or antagonism of the combination of Example 3 with the anti-cancer drug [15]: + + (Slight synergy relative to each agent alone (CI = 0.75-0.9 by Bliss Independence Model))
- synergy, additivity or antagonism of the combination of Example 3 with the anti-cancer drug [16]: + (Additive relative to each agent alone (CI = 0.9-1 by Bliss Independence Model and <0.9 by Highest Single Agent Model))
- synergy, additivity or antagonism of the combination of Example 3 with the anti-cancer drug [17]: + (Additive relative to each agent alone (CI = 0.9-1 by Bliss Independence Model and <0.9 by Highest Single Agent Model))
- synergy, additivity or antagonism of the combination of Example 3 with the anti-cancer drug [18]: − (Slightly antagonistic relative to each agent alone (CI = 1.1-1.2 by Highest Single Agent Model))
- synergy, additivity or antagonism of the combination of Example 3 with the anti-cancer drug [19]: + + + (Synergy relative to each agent alone (CI = 0.4-0.74 by Bliss Independence Model))
- synergy, additivity or antagonism of the combination of Example 3 with the anti-cancer drug [20]: + (Additive relative to each agent alone (CI = 0.9-1 by Bliss Independence Model and <0.9 by Highest Single Agent Model))
- synergy, additivity or antagonism of the combination of Example 3 with the anti-cancer drug [21]: + + + (Synergy relative to each agent alone (CI = 0.4-0.74 by Bliss Independence Model))
- synergy, additivity or antagonism of the combination of Example 3 with the anti-cancer drug [22]: + (Additive relative to each agent alone (CI = 0.9-1 by Bliss Independence Model and <0.9 by Highest Single Agent Model))
- synergy, additivity or antagonism of the combination of Example 3 with the anti-cancer drug [23]: + (Additive relative to each agent alone (CI = 0.9-1 by Bliss Independence Model and <0.9 by Highest Single Agent Model))
- synergy, additivity or antagonism of the combination of Example 3 with the anti-cancer drug [24]: + + (Slight synergy relative to each agent alone (CI = 0.75-0.9 by Bliss Independence Model))
- synergy, additivity or antagonism of the combination of Example 3 with the anti-cancer drug [25]: + (Additive relative to each agent alone (CI = 0.9-1 by Bliss Independence Model and <0.9 by Highest Single Agent Model))
- synergy, additivity or antagonism of the combination of Example 3 with the anti-cancer drug [26]: + + (Slight synergy relative to each agent alone (CI = 0.75-0.9 by Bliss Independence Model))
- synergy, additivity or antagonism of the combination of Example 3 with the anti-cancer drug [27]: + + (Slight synergy relative to each agent alone (CI = 0.75-0.9 by Bliss Independence Model))
- synergy, additivity or antagonism of the combination of Example 3 with the anti-cancer drug [28]: + + (Slight synergy relative to each agent alone (CI = 0.75-0.9 by Bliss Independence Model))
- synergy, additivity or antagonism of the combination of Example 3 with the anti-cancer drug [29]: + (Additive relative to each agent alone (CI = 0.9-1 by Bliss Independence Model and <0.9 by Highest Single Agent Model))
- synergy, additivity or antagonism of the combination of Example 3 with the anti-cancer drug [30]: + + (Slight synergy relative to each agent alone (CI = 0.75-0.9 by Bliss Independence Model))
- synergy, additivity or antagonism of the combination of Example 3 with the anti-cancer drug [31]: + (Additive relative to each agent alone (CI = 0.9-1 by Bliss Independence Model and <0.9 by Highest Single Agent Model))
- synergy, additivity or antagonism of the combination of Example 3 with the anti-cancer drug [32]: + + + (Synergy relative to each agent alone (CI = 0.4-0.74 by Bliss Independence Model))
- synergy, additivity or antagonism of the combination of Example 3 with the anti-cancer drug [33]: + + (Slight synergy relative to each agent alone (CI = 0.75-0.9 by Bliss Independence Model))
- synergy, additivity or antagonism of the combination of Example 3 with the anti-cancer drug [34]: + + + (Synergy relative to each agent alone (CI = 0.4-0.74 by Bliss Independence Model))
- synergy, additivity or antagonism of the combination of Example 3 with the anti-cancer drug [35]: + + (Slight synergy relative to each agent alone (CI = 0.75-0.9 by Bliss Independence Model))
- synergy, additivity or antagonism of the combination of Example 3 with the anti-cancer drug [36]: + (Additive relative to each agent alone (CI = 0.9-1 by Bliss Independence Model and <0.9 by Highest Single Agent Model))
- synergy, additivity or antagonism of the combination of Example 3 with the anti-cancer drug [37]: + (Additive relative to each agent alone (CI = 0.9-1 by Bliss Independence Model and <0.9 by Highest Single Agent Model))
- synergy, additivity or antagonism of the combination of Example 3 with the anti-cancer drug [38]: + (Additive relative to each agent alone (CI = 0.9-1 by Bliss Independence Model and <0.9 by Highest Single Agent Model))
- synergy, additivity or antagonism of the combination of Example 3 with the anti-cancer drug [39]: + (Additive relative to each agent alone (CI = 0.9-1 by Bliss Independence Model and <0.9 by Highest Single Agent Model))
